Test results published in PMC10886690, “Synthesis, Characterization, Antioxidant, and Anticancer Activity against Colon Cancer Cells of Some Cinnamaldehyde-Based Chalcone Derivatives” (Biomolecules, 2024).
Entries after “also recorded” stand apart in the source; their conditions may differ. Like-named read-outs stand apart in the source and are kept apart here.

How the values were obtained:
wi38 cells = assay: MTT test on healthy WI38 cells; assay type: cell-based, human; settings: 24 h; for effect on wi38 normal cell viability: 50 to 1000 µM
Method: (§1) The American Type Culture Collection (ATCC) provided WI-38 (ATCC CCL-75), a cell line from the healthy human embryonic lung, and Caco-2 (ATCC HTB-37), a cell line from colon cancer. These cells were developed in DMEM medium that was supplemented with antibiotics and fetal bovine serum in a 5% CO2 humidified incubator at 37 °C.
The effects of the investigated compounds on the survival of healthy cells, WI38, have been evaluated and compared to 5-Fluorouracil (5-FU, the standard reference drug) utilizing the MTT test at concentrations ranging from 50 to 1000 µM to further determine whether the substances were secure for usage on living tissues. Three distinct evaluations of each value were carried out to calculate the final findings.

Caco-2 cells [1] = assay: MTT cytotoxicity against Caco-2 cells; assay type: cell-based, human; settings: 24 h incubation, mean ± SD of three analyses, read-out: IC50 Conc. against Caco-2 cells
Method: as §1
The toxicity of the tested compounds (3a–3k) toward Caco-2 cancer cells was examined and compared to 5-Fluorouracil (5-FU, the standard reference drug) utilizing MTT assay, as previously explained. In brief, 1 × 10^5 Caco-2 cells/mL were distributed into each well of a 96-well plate and kept overnight at 37 °C in their growth mixture. The cells were then subjected to the various doses of the studied compounds (50–1000 µM). Following that, the cells were exposed to MTT solution, which induced formazan formation from the MTT, a byproduct of the metabolism of MTT that is proportionate to the quantity of intact cells. To further dissolve the formazan crystal, dimethyl sulfoxide was applied to the cells. Caco-2 survival was obtained through measuring the value of the optical density at 570 nm implementing a microplate reader (Bio-Rad, Hercules, CA, USA), and the effect of the substances on cell proliferation was expressed using the aforementioned formula (2):Cell viability % = (Abs. of tested sample − Abs. of blank)/(Abs. of control − Abs. of blank) × 100(2)
The half-suppression (IC50) dose of the test drugs over a 24 h incubation period was identified through examination of the concentration–response curve. Each value was evaluated three times, and the average of the three ratings was employed to obtain the results.

Caco-2 cells [2] = assay: LDH release ELISA in treated Caco-2 cells; assay type: cell-based, human; settings: compound-treated Caco-2 cells, p < 0.001
Method: The amount of lactate dehydrogenase enzyme (LDH) secreted by compound 3e-treated Caco-2 cells was measured using the double-antibody-sandwich ELISA method (Sun-Red, Cat. N. 201-28-0094) to confirm the cytotoxic impact of the tested chemical on Caco-2 cells. Specifically, 40 µL of the supernatant obtained from centrifuging the Caco-2 cells that had been treated with the 3e compound was added to the test wells. Next, LDH-antibody (10 µL) and Streptavidin-HRP (50 µL) were transferred to every well. After 60 min of incubation at 37 °C, the 96-well plate was shaken gently. […] The 96-well plate was then gently shaken and left to incubate for 60 min at 37 °C. The plates were then washed, and each test well received 50 µL of chromogen solution A and 50 µL of chromogen solution B. The plates were then incubated at 37 °C, and darkened for 10 min. Stop solution (50 µL) was then applied to each well. Once testing was complete, 450 nm was used to determine the plate’s optical density (OD). The amount of released LDH was calculated using the standard curve that had been previously established.

cleaved Caspase-3 = assay: ELISA of cleaved Caspase-3 protein in Caco-2 cells; assay type: cell-based, human; settings: Caco-2, IC50 dose
Method: (§2) Protein expression levels of the under investigation genes were evaluated in Caco-2 cells treated with compound 3e using an ELISA assay. Three different ELISA kits were used: one for BAX (ab199080), one for cleaved Caspase-3 (ab220655), and one for BCL-2 (ab272102), which were supplied via Abcam (Cambridge, UK). All of these kits are based on a single, highly sensitive sandwich enzyme assay that lasts 90 min and uses a precoated ELISA plate and an anti-tag antibody to capture antibodies that have been labeled with an affinity tag. The tested compound 3e-treated cultured Caco-2 cells were centrifuged, the resulting pellets were discarded, and the residual supernatant was mixed with an antibody cocktail solution in a 96-well ELISA plate. The plate was then incubated for 1 h at room temperature. After thoroughly rinsing the plate in wash buffer (1×), in each well, a ten min incubation period of tetramethylbenzidine substrate solution was conducted. Following that, the plate was stored in a dim area. The intensity at 450 nm was then measured with a microplate reader immediately after a stop solution was added.

BAX [3] = assay: ELISA of BAX protein in Caco-2 cells; assay type: cell-based, human; settings: Caco-2, IC50 dose
Method: as §2

[4] = DPPH free-radical scavenging (antioxidant) assay; settings: 40–200 µM in methanol, versus ascorbic acid
Method: The potential of several compounds to scavenge DPPH free radicals was quantified employing a colorimetric approach. Various doses of all tested compounds (3a–3k) were prepared in methanol (40–200 µM), and standard solutions of ascorbic acid (40–200 µM) were made by dissolving the compound in methanol. After determining the optimal concentration of each compound and ascorbic acid, the solutions were supplemented with DPPH. The radical scavenging capacity (RSC) was calculated by measuring the absorbance at 517 nm and using the Formula (1):% DPPH RSC = (Abs. of control − Abs. of sample or standard)/Abs. of control × 100(1)

BCL-2 [5] = assay: qRT-PCR of BCL-2 mRNA in Caco-2 cells; assay type: cell-based, human; settings: Caco-2, IC50 concentration
Description: (§3) The relative amounts of messenger RNA (mRNA) for apoptosis-related genes (BCL-2, Caspase-3, and BAX) have been monitored in order to look into potential processes relating to the effect of the tested 3e compound on apoptosis inside the treated Caco-2 cancer cells. In a nutshell, Thermo Fisher Scientific’s RNA purification kit (Waltham, MA, USA) (catalog #K0731) was used to isolate total RNA from both control- and Caco-2-treated cells, as per the manufacturer’s instructions. The ratio of A260/A280 was then quantified using a spectrophotometer to figure out the amounts of extracted RNA in each sample. Then, following the manufacturer’s instructions, first-strand cDNA was produced from the collected RNA samples using a kit made by Thermo Fisher Scientific called RevertAid (catalog #K1621). Real-time PCR amplification was performed on an Applied Biosystems StepOnePlusTM instrument using the Thermo Fisher Scientific Maxima SYBR Green qPCR kit (catalog #K0221) and gene-specific primers (Invitrogen, Waltham, MA, USA), as detailed in Table 3. Then, the relative quantification (RQ) of the utilized genes was calculated using a comparative threshold cycle approach, compared against their varied expression in the untreated samples, and normalized to B-actin as a housekeeping gene. […]

BCL-2 [6] = assay: ELISA of BCL-2 protein in Caco-2 cells; assay type: cell-based, human; settings: Caco-2, IC50 dose
Method: as §2

BAX [7] = assay: qRT-PCR of BAX mRNA in Caco-2 cells; assay type: cell-based, human; settings: Caco-2, IC50 concentration
Description: as §3

Caspase-3 = assay: qRT-PCR of Caspase-3 mRNA in Caco-2 cells; assay type: cell-based, human; settings: Caco-2, IC50 concentration
Description: as §3

Caco-2 cells [8] = assay: Annexin V/PI flow cytometry apoptosis assay; assay type: cell-based, human; settings: Caco-2, IC50 dose, 24 h
Method: The annexin V/PI assay focuses on the translocation of phosphatidylserine (PS) from the inner plasma membrane toward the cell surface within apoptotic cells. Accordingly, the Annexin V-FITC detection kit I (BD Biosciences) was implemented to figure out the numbers of apoptotic and necrotic cells in both the compound 3e-treated and untreated Caco-2 cells for 24 h.. In brief, Caco-2 cells were collected, expanded in 6-well culture dishes with 1 × 10^6 cells per well, and then allowed to incubate for an overnight period to promote cell adhesion and proliferation. After only 24 h in the presence of the 3e compound, the cells were trypsinized, centrifuged, rinsed with PBS, and then mixed with a solution containing Annexin V binding buffer (1×) before being exposed to the Annexin V-FITC and propidium iodide stains. At last, a flow cytometer (BD FACSCalibur™, Biosciences, San Jose, CA, USA) was implemented to find the amount of early as well as late apoptotic cells, and the outcomes were presented graphically.

Caco-2 cells [9] = assay: Comet assay (DNA fragmentation); assay type: cell-based, human
Description: The production of genotoxicity in Caco-2 cells treated with compound 3e was investigated using a comet test. Caco-2 cells were pretreated with a caspase-3 inhibitor (Z-DEVD-FMK) to ascertain whether or not caspase-3 activity contributed to the DNA damage induced by compound 3e. Using the comet test, in order to assess the influence of compound 3e upon DNA damage, Caco-2 cells were subjected to either compound 3e separately (IC50 concentration) or compound 3e (IC50 concentration) following prior treatment with Z-DEVD-FMK ([…]) for 1 h. Broken strands of broken DNA will detach from intact strands of cellular DNA during fragmentation, producing a structure similar to a comet tail visible under a fluorescence microscope (Carl Zeiss, Axiostar Plus 1169–149, Jena, Germany). For each slide, 100 photos of comets of varying shapes were captured using a computerized image analysis system. Afterwards, the photos were analyzed using the TriTek Comet ScoreTM program (TriTek Corp., Sumerduck, VA, USA) to gather information about the comet’s properties. The tail DNA and tail moment, two often-utilized markers, were built to be used in discovering the data. The Olive tail moment (OTM), which is also called a tail moment parameter, is generally accepted as the gold standard for evaluating DNA damage. Its value, which was calculated using Equation (3), is proportional to the tail’s DNA mobility and DNA abundance. OTM = quantity of tail moment × quantity of tail DNA divided by 100(3)

[10] = Caco-2, IC50 concentration after pretreatment with Caspase-3 inhibitor Z-DEVD-FMK for 1 h
[11] = Caco-2, compound alone at IC50 concentration, without Caspase-3 inhibitor

Compound	IC50 (Caco-2 cells [1]; Homo sapiens, Caco-2, 24 h) [µM]	melting point [°C]	other results
O=c1[nH]cc(F)c(=O)[nH]1 [5-FU, 5-Fluorouracil, reference compound]	33.1 ± 1.45	–	effect on wi38 normal cell viability (wi38 cells): decrease in wi38 cell viability with increasing its concentration; IC50 (wi38 cells; Homo sapiens, WI-38, 50–1000 µM, read-out: IC50 against normal wi38 cell): 22.8 ± 2.46 µM
O=C(/C=C/C=C/c1ccc([N+](=O)[O-])cc1)c1cccs1 [3j, (2E,4E)-5-(4-nitrophenyl)-1-(thiophen-2-yl)penta-2,4-dien-1-one]	149 ± 2.55	218	–
O=C(/C=C/C=C/c1ccccc1)c1ccco1 [3d, (2E,4E)-1-(furan-2-yl)-5-phenylpenta-2,4-dien-1-one]	> 1000	–	–
O=C(/C=C/C=C/c1ccc([N+](=O)[O-])cc1)c1cccnc1 [3i, (2E,4E)-5-(4-nitrophenyl)-1-(pyridin-3-yl)penta-2,4-dien-1-one]	207 ± 2.31	–	–
COc1ccccc1/C=C/C=C/C(=O)c1ccc[nH]1 [3g, (2E,4E)-5-(2-methoxyphenyl)-1-(1H-pyrrol-2-yl)penta-2,4-dien-1-one]	336 ± 4.96	177	–
O=C(/C=C/C=C/c1ccccc1)c1cccs1 [3c, (2E,4E)-5-phenyl-1-(thiophen-2-yl)penta-2,4-dien-1-one]	> 1000	102	–
O=C(/C=C/C=C/c1ccc([N+](=O)[O-])cc1)c1ccccn1 [3h, (2E,4E)-5-(4-nitrophenyl)-1-(pyridin-2-yl)penta-2,4-dien-1-one]	548.6 ± 3.76	205	–
COc1ccccc1/C=C/C=C/C(=O)c1ccccn1 [3f, (2E,4E)-5-(2-methoxyphenyl)-1-(pyridin-2-yl)penta-2,4-dien-1-one]	173 ± 3.84	195	–
O=C(/C=C/C=C/c1ccc([N+](=O)[O-])cc1)c1ccco1 [3k, (2E,4E)-1-(furan-2-yl)-5-(4-nitrophenyl)penta-2,4-dien-1-one]	130 ± 3.28	189	–
O=C(/C=C/C=C/c1ccccc1)c1ccccn1 [3a, (2E,4E)-5-phenyl-1-(pyridin-2-yl)penta-2,4-dien-1-one]	725.6 ± 3.69	182	–
O=C(/C=C/C=C/c1ccccc1)c1ccc[nH]1 [3e, (2E,4E)-5-phenyl-1-(1H-pyrrol-2-yl)penta-2,4-dien-1-one]	32.1 ± 3.92	170	LDH levels versus untreated Caco-2 cells (Caco-2 cells [2]): considerably increased; effect on wi38 normal cell viability (wi38 cells): higher % of wi38 cell viability; also recorded: no detrimental effects; cleaved Caspase-3 protein level versus untreated cells (cleaved Caspase-3): increased levels; BAX protein level versus untreated cells (BAX [3]): increased levels; antioxidant activity (DPPH scavenging, IC50) compared with the other compounds [4]: highest effective antioxidant activity; IC50 (Caco-2 cells [1]): 32.2 ± 3.92 µM; BCL-2 mRNA expression level versus untreated cells (BCL-2 [5]): substantial reduction; BCL-2 protein level versus untreated cells (BCL-2 [6]): decreased; BAX mRNA expression level versus untreated cells (BAX [7]): increased considerably; Caspase-3 mRNA expression level versus untreated cells (Caspase-3): increased considerably; percentage of apoptotic cells (early and late) versus untreated (Caco-2 cells [8]): much greater percentage of apoptotic cells; % DNA in Tail (Caco-2 cells [9]; [10]): 4.55± 1.73; Olive Tail Moment (OTM) (Caco-2 cells [9]; [10]): 0.69± 0.16; Tail Moment (Caco-2 cells [9]; [10]): 0.44± 0.08; % DNA in Tail (Caco-2 cells [9]; [11]): 8.18 ± 0.56; Olive Tail Moment (OTM) (Caco-2 cells [9]; [11]): 1.92 ± 0.04; Tail Moment (Caco-2 cells [9]; [11]): 1.19 ± 0.03
O=C(/C=C/C=C/c1ccccc1)c1cccnc1 [3b, (2E,4E)-5-phenyl-1-(pyridin-3-yl)penta-2,4-dien-1-one]	> 1000	104	–
